Consider seven compounds from patent US12404246B1, “2-aminomethylimidazole mimics of NS4A and their effect thereof on hepatitis C virus NS3 protease” (King Abdulaziz University, priority 2024, dated 2025).

Test [1] has as its target HCV NS3 (Hepatitis C virus genotype 4a, UniProt O39929). As to conditions: mixed with a substrate peptide; cited from earlier work.
Test [2] has as its target T1, HCV NS3 domain of genotype 4a (Hepatitis C virus genotype 4a, UniProt O39929).
T1 construct: NS3 protease domain 1-181 aa+N-terminal T7 tag and C-terminal His tag; T7 tag (N); made in house; host or cells: E. coli Rosette (DE3) pLysS
In words: Binding assay by Differential Static Light Scattering (DSLS): aggregation temperature of NS3. As to conditions: for ΔTagg (aggregation temperature shift of NS3): NS3 domain 15.0 μM with equimolar compound, shift against NS3 alone. The text has this: In an embodiment, DSLS (Senisterra, Markin et al. 2006) is a preferred method to compare the relative binding potency for binding of a compound of Formula I with HCV NS3. DSLS measure the proteins aggregation temperature (Tagg) as an indicator of its stability (Davis, Walker et al. 2010). It is known that the binding of small molecules to proteins causes shifts of the aggregation temperature (ΔTagg) to higher temperature (Shahul Hameed, Haider et al. 2018). One aspect of this invention is using ΔTagg determination as a method to determine the potency of binding of compounds belonging to formula I to the HCV NS3 protease, in comparison to the native NS4A.
The NS3 domain (15.0 μM), alone or mixed with an equimolar equivalent of tested compound or the NS4A, was added to a binding buffer (20.0 mM HEPES, 10.0 mM DTT, 200 mM NaCl, pH 7.60) to a final volume 100 μL. The mixture was incubated at room temperature with gentle shaking for 2 h. Afterwards, 10 μL of the mixture was transferred into a clear bottomed Nunc 384-well plate and covered by 10 μL paraffin oil to minimize evaporation. Protein aggregation was monitored by tracking the change in scattered light that was detected by a charged coupled device (CCD) camera. Snapshot images of the plate were taken every 0.5° C. The pixel intensities in a preselected region of each well were integrated using image analysis software to generate a value representative of the total amount of scattered light in that region. These intensities were then plotted against temperature for each sample well and fitted to obtain the aggregation temperature (Tagg). Aggregation was monitored and analyzed to assess the effect of NS4A and its synthetic analogues on the stability of the NS3 as an indicator of binding. Each experiment was repeated three times (Triplicate). Statistical analysis was performed using GraphPad Prism v. 8.0® and Instat® v. 3.10 software. The Tagg for the compound was only considered if its […] of the calculated Tagg value.
Each experiment was run as triplicate (Experiment 1, 2 and 3) and the standard deviations (ST.DEV.) were calculated. (results table FIG. 31).

`CCCCCCNC(=O)c1ncc(C(=O)NCCCCNC(=N)N)[nH]1` [N5-(4-guanidinobutyl)-N2-n-hexyl-1H-imidazole-2,5-dicarboxamide]: the “inhibition of HCV NS3 protease function” value in test [1] is “able to inhibit the HCV NS3 from functioning as a protease”.
As to `CCCCCCNCc1nc(C(=O)NCc2ccccn2)c[nH]1` [Comp 9, 2-((hexylamino)methyl)-N-(pyridin-2-ylmethyl)-1H-imidazole-4-carboxamide], the “ΔTagg (aggregation temperature shift of NS3)” value in test [2] is 0.91 °C.
The same measure, in the same setting: the same measure for `CC(C)CCCCCNCc1ncc(C(=O)NCc2ccccn2)[nH]1` [Comp 12, 2-(((6-methylheptyl)amino)methyl)-N-(pyridin-2-ylmethyl)-1H-imidazole-5-carboxamide]: 0.57 °C.
Still for that read-out and setting: the same measure for `CCCCCCNCc1ncc(C(=O)NCc2ccccn2)[nH]1` [Comp 3, 2-((hexylamino)methyl)-N-(pyridin-2-ylmethyl)-1H-imidazole-5-carboxamide]: 0.47 °C.
Take `CC(=O)NCCNCc1nc(C(=O)NCc2ccccn2)c[nH]1` [Comp 13, 2-(((2-acetamidoethyl)amino)methyl)-N-(pyridin-2-ylmethyl)-1H-imidazole-5-carboxamide]: the “affinity towards the HCV NS3 protein compared to the native viral peptide cofactor NS4A” value in test [2] (DSLS, FIG. 30-32) was “equal or higher affinity”. The “ΔTagg (aggregation temperature shift of NS3)” value in test [2] was found to be 1.35 °C. Moreover, the “Tagg (aggregation temperature of NS3 mixed with the substance)” value in test [2] (NS3 domain 15.0 μM with equimolar substance, incubated 2 h, triplicate, NS3 alone Tagg 43.22° C.) was 44.40 °C. In addition, the “ΔTagg higher than that of the HCV NS4A” value in test [2] (relative to the shift caused by NS4A) turned out to be 14%.
`O=C(NCc1ccccn1)c1cnc(CNCCOC2CCCCC2)[nH]1` [Comp 10, 2-(((2-(cyclohexyloxy)ethyl)amino)methyl)-N-(pyridin-2-ylmethyl)-1H-imidazole-5-carboxamide]: the “ΔTagg (aggregation temperature shift of NS3)” value in test [2] was 0.43 °C.
The same measure, in the same setting: then `CNC(=O)CNC(=O)c1cnc(CNCCNC(C)=O)[nH]1` [Comp 8, 2-(((2-acetamidoethyl)amino)methyl)-N-(2-(methylamino)-2-oxoethyl)-1H-imidazole-5-carboxamide], with 0.48 °C.
